Assay [1] can be described thus: Inhibition of HIV1 LAI reverse transcriptase infected in human MT4 cells assessed as protection against virus-induced cytopathic effect by MTT assay.
The nature of assay [2]: Inhibition of HIV1 reverse transcriptase L100I/K103N double mutant infected in human MT4 cells assessed as protection against virus-induced cytopathic effect by MTT assay. On the technique in general: Cytopathic effects are the visible damage that an infection or toxin causes in cultured cells.
Assay [3] can be described thus: Inhibition of HIV1 reverse transcriptase Y188L mutant infected in human MT4 cells assessed as protection against virus-induced cytopathic effect by MTT assay.
The nature of assay [4]: Inhibition of HIV1 reverse transcriptase K103N/Y188C double mutant infected in human MT4 cells assessed as protection against virus-induced cytopathic effect by MTT assay.
Assay [5] in a line: Inhibition of HIV1 reverse transcriptase Y181C mutant infected in human MT4 cells assessed as protection against virus-induced cytopathic effect by MTT assay.
Assay [6] can be described thus: Inhibition of HIV1 reverse transcriptase K103N mutant infected in human MT4 cells assessed as protection against virus-induced cytopathic effect by MTT assay.
A short description of assay [7]: Inhibition of HIV1 reverse transcriptase L100I mutant infected in human MT4 cells assessed as protection against virus-induced cytopathic effect by MTT assay.
Another assay deals with Reverse transcriptase (Human immunodeficiency virus 1, UniProt Q9WKE8). Briefly: Inhibition of CXCR4 tropic HIV1 3B reverse transcriptase infected in human TZM-bl cells.
Assay [8] can be described thus: Inhibition of CXCR4 tropic HIV1 UG070 reverse transcriptase infected in human TZM-bl cells.
Assay [9] can be described thus: Inhibition of CCR5 tropic HIV1 ADA5 reverse transcriptase infected in human TZM-bl cells.
Assay [10] can be described thus: Inhibition of CCR5 tropic HIV1 VB59 reverse transcriptase infected in human TZM-bl cells.
Assay [11] can be described thus: Inhibition of HIV1 reverse transcriptase K103N/Y181C double mutant infected in human MT4 cells harboring GFP by scanning microscopic analysis.
The nature of assay [12]: Inhibition of wild-type HIV1 3B reverse transcriptase infected in human MT4 cells harboring GFP by scanning microscopic analysis.
Assay [13] can be described thus: Inhibition of HIV1 reverse transcriptase Y181C mutant infected in human MT4 cells harboring GFP by scanning microscopic analysis.
Assay [14] is described as follows: Inhibition of HIV1 reverse transcriptase K103N mutant infected in human MT4 cells harboring GFP by scanning microscopic analysis.
The target in assay [15] is recombinant HIV1 reverse transcriptase Y188L mutant. Briefly: Inhibition of recombinant HIV1 reverse transcriptase Y188L mutant.
Assay [16] in a line: Inhibition of wild-type HIV1 3B reverse transcriptase infected in human MT4 cells assessed as protection against virus-induced cytopathic effect measured 5 days post infection by MTT assay.
Assay [17] is described as follows: Inhibition of HIV1 reverse transcriptase K103N/Y181C double mutant infected in human MT2 cells assessed as protection against virus-induced cytopathic effect by MTT assay.
Assay [18] can be described thus: Inhibition of HIV1 reverse transcriptase Y181C mutant infected in human MT2 cells assessed as protection against virus-induced cytopathic effect by MTT assay.
Assay [19] in a line: Inhibition of wild-type HIV1 3B reverse transcriptase infected in human MT4 cells assessed as protection against virus-induced cytopathic effect measured after 4 days by MTT assay.
Assay [20] in a line: Inhibition of HIV1 reverse transcriptase K103N/Y188C double mutant infected in human MT4 cells assessed as protection against virus-induced cytopathic effect measured after 4 days by MTT assay.
The nature of assay [21]: Inhibition of HIV1 3B reverse transcriptase infected in human MT2 cells assessed as protection against virus-induced cytopathic effect by MTT assay.
Assay [22] is described as follows: Inhibition of HIV1 reverse transcriptase K103N/Y188C double mutant infected in human MT4 cells assessed as protection against virus-induced cytopathic effect measured 5 days post infection by MTT assay.

What is called IC50 is the concentration at which inhibition is half-maximal. The EC50 is the concentration that produces a half-maximal response.

On to `Cc1cc(C)c(Nc2nc(Nc3ccc(C#N)cc3)ncc2-c2ccccc2)c(C)c1`, for which the IC50 in assay [1] amounted to 24 nM.

Turning to `Cc1cc(C#N)cc(C)c1Nc1nc(Nc2ccc(C#N)cc2)ncc1Cl`, the IC50 was 1.2 nM in [1]; 144 nM in [2]; 4.7 nM in assay [3]; 69 nM in assay [4]; 14 nM in assay [5]; 0.9 nM in assay [6]. Moreover, the IC50 in assay [7] amounted to 5.2 nM.

Regarding `N#Cc1ccc(Nc2nc(N)cc(Cc3c(Cl)cccc3Cl)n2)cc1`, the IC50 amounted to 1 nM in assay [1]; 71 nM in assay [3]; 175 nM in [5]; 12 nM in assay [6]; 299 nM in assay [7].

Turning to `Cc1cc(C)c(Nc2nc(Cl)nc(Nc3ccc(C#N)nc3)n2)c(C)c1`, the concentration for half-maximal inhibition (IC50) at Reverse transcriptase turned out to be 0.124 nM; in assay [8] it was 1.12 nM; in assay [9] it was 0.273 nM; in [10], 0.497 nM.

As to `N#C/C=C/c1ccc(Nc2nc(Nc3ccc(C#N)cc3)ncc2C(=O)NCCCN2CCCC2)cc1`, the EC50 came to 16 nM in assay [11], 0.794 nM in assay [12], 20 nM in assay [13] and 1 nM in [14].

With `Cc1cc(C)c(Nc2ccnc(Nc3ccc(C(N)=O)cc3)n2)c(C)c1`, in [15], the half-maximal inhibitory concentration (IC50) is below 10000 nM.

`C=Cc1cnc(Nc2ccc(C#N)cc2)nc1Nc1c(C)cc(C)cc1C`: the IC50 in [1] is 2.5 nM; in assay [2], above 100000 nM; in [3], 29 nM; in assay [4], 106 nM; in [5], 36 nM; in assay [6], 5.8 nM. Besides, the IC50 in assay [7] was determined as 35 nM.

Consider `N#C/C=C/c1ccc(Nc2cc(NCCc3ccc(S(N)(=O)=O)cc3)nc(Nc3ccc(C#N)cc3)n2)cc1`, for which the EC50 in assay [11] was 91 nM; in [12], 16 nM; in assay [13] it was 98 nM; in assay [14], 389 nM.

Take `Cc1cc(C#N)cc(C)c1Oc1nc(Nc2ccc(C#N)cc2)ncc1N`: the IC50 in [1] came out at 1 nM; in assay [2], 282 nM; in assay [3], 5.7 nM; in [4], 14 nM; in [5], 9.3 nM; in assay [6], 1.3 nM. Further, in [7], the IC50 turned out to be 16 nM.

For the molecule `N#Cc1ccc(Nc2nc(N)nc(Cc3c(Cl)cccc3Cl)n2)cc1`, the IC50 in assay [1] came out at 6 nM; in [3], 316 nM; in assay [5], 200 nM; in assay [6], 40 nM; in [7], 398 nM.

As to `Cc1cc(C#CCCO)cc(C)c1Oc1ccnc(Nc2ccc(C#N)cc2)n1`, the EC50 in assay [16] was found to be 3 nM.

With `Cc1cc(C)c(Nc2nc(N)nc(Nc3ccc(C#N)nc3)n2)c(C)c1`, the IC50 against Reverse transcriptase amounted to 0.131 nM; in assay [8], 0.784 nM; in assay [9] it was 0.183 nM; in [10], 0.183 nM.

`Cc1cc(C#N)cc(C)c1Oc1ccnc(Nc2ccc(C#N)cc2)n1`: the IC50 stood at 1.1 nM in assay [1]; 798 nM in [2]; 19 nM in assay [3]; 94 nM in assay [4]; 37 nM in assay [5]; 2.7 nM in [6]. For the same molecule, the IC50 in assay [7] was found to be 73 nM.

As for `Cc1cc(C#N)cc(C)c1Oc1nc(Nc2ccc(C#N)cc2)ncc1[N+](=O)[O-]`, the IC50 was 18 nM in assay [1]; above 10000 nM in assay [2]; 782 nM in assay [3]; 194 nM in [4]; 304 nM in assay [5]; 10 nM in assay [6]. Further, in assay [7], the half-inhibitory concentration (IC50) turned out to be 121 nM.

With `Cc1cc(C#N)cc(C)c1Nc1nc(Nc2ccc(C#N)cc2)ncc1C#N`, the IC50 in [1] stood at 0.5 nM; in assay [2] it was 312 nM; in assay [3], 8.6 nM; in assay [4], 181 nM; in assay [5], 76 nM; in [6], 2.6 nM. For the same molecule, the IC50 in assay [7] was determined as 91 nM.

In the case of `Cc1cc(C)c(Nc2cc(OCCCN3CCOCC3)nc(Nc3ccc(C#N)cc3)n2)c(C)c1`, the results for the EC50 in [17] and in assay [18] were 38 nM and 480 nM, respectively.

As for `N#Cc1ccc(Nc2nccc(Oc3ccc4ccccc4c3Br)n2)cc1`, the EC50 in assay [19] amounted to 2.4 nM; in assay [20], 6570 nM.

In the case of `N#C/C=C/c1ccc(Nc2cc(NCCCN3CCOCC3)nc(Nc3ccc(C#N)cc3)n2)cc1`, the EC50 was determined as 98 nM in [11], 20 nM in assay [12], 87 nM in assay [13] and 219 nM in assay [14].

`Cc1cc(C#N)cc(C)c1Nc1ccnc(Nc2ccc(C#N)cc2)n1`: the IC50 in assay [1] is 0.4 nM; in [2], 1090 nM; in assay [3], 7.8 nM; in assay [4], 37 nM; in assay [5] it was 7.1 nM; in [6] it was 1.9 nM. Besides, in assay [7], the IC50 came out at 34 nM.

For the molecule `CC(=O)Nc1cnc(Nc2ccc(C#N)cc2)nc1Oc1c(C)cc(C#N)cc1C`, the IC50 was determined as 205 nM in assay [2], 30 nM in assay [4] and 3.3 nM in [6].

On to `C#Cc1cnc(Nc2ccc(C#N)cc2)nc1Nc1c(C)cc(C)cc1C`, for which the figures for the IC50 in assay [2], in assay [4] and in assay [6] were 71 nM, 42 nM and 6.2 nM, respectively.

As to `Cc1cnc(Nc2ccc(C#N)cc2)nc1Nc1c(C)cc(C#N)cc1C`, the IC50 in [1] was 0.8 nM; in assay [2] it was above 10000 nM; in [3], 16 nM; in assay [4], 162 nM; in assay [5] it was 12 nM; in assay [6] it was 1.7 nM. Also, in assay [7], the IC50 is 16 nM.

For the molecule `N#Cc1ccc(Nc2cc(Cc3c(Cl)cccc3Cl)nc(N)n2)cc1`, the IC50 in assay [1] was 10 nM; in assay [3] it was above 100000 nM; in [5], above 100000 nM; in [6] it was 33300 nM; in assay [7], 96600 nM.

For the molecule `Cc1cc(C#N)cc(C)c1Nc1nc(Nc2ccc(C#N)cc2)ncc1Br`, the IC50 in assay [1] was found to be 0.4 nM; in [2] it was 37 nM; in assay [3], 3.3 nM; in [4], 32 nM; in [5], 9.6 nM; in assay [6], 0.4 nM. Moreover, the IC50 in assay [7] is 7 nM.

Take `Cc1cc(/C=C/C#N)cc(C)c1Nc1nc(Nc2ccc(C#N)cc2)nc(OCCCN2CCOCC2)n1`: the EC50 in assay [17] worked out at 1.3 nM; in assay [18], 12 nM.

In the case of `CN(C)CCNC(=O)c1cnc(Nc2ccc(C#N)cc2)nc1Nc1ccc(/C=C/C#N)cc1`, the EC50 was determined as 20 nM in [11], 0.794 nM in assay [12], 16 nM in assay [13] and 0.631 nM in assay [14].

Take `N#C/C=C/c1cc(F)c(Nc2nc(NCCCN3CCOCC3)nc(Nc3ccc(C#N)cc3)n2)c(F)c1`: the results for the EC50 in assay [17], in [21] and in assay [18] were 16 nM, 5.7 nM and 75 nM, respectively.

On to `N#Cc1ccc(Nc2nccc(Oc3ccc4cc(C#N)ccc4c3Br)n2)cc1`, for which the figures for the EC50 in [19] and in [20] were 2 nM and 240 nM, respectively.

As to `CCN(c1nc(Nc2ccc(C#N)cc2)nc(Oc2c(C)cc(C)cc2C)n1)N1CCOCC1`, the concentration for a half-maximal effect (EC50) is 7.8 nM in assay [16] and 650 nM in assay [22].

As for `Cc1cc(Br)cc(C)c1Sc1ccnc(Nc2ccc(C#N)cc2)n1`, the IC50 in [1] amounted to 5.7 nM; in assay [2], 3890 nM; in [3], 44 nM; in [4] it was 354 nM; in assay [5], 68 nM; in [6], 39 nM. The IC50 in assay [7] amounted to 174 nM.

As to `N#Cc1ccc(Nc2cc(N)nc(Cc3c(Cl)cccc3Cl)n2)cc1`, the IC50 in assay [1] is 452 nM; in [3], above 100000 nM; in [5], above 100000 nM; in [6], above 100000 nM; in assay [7] it was above 100000 nM.

The values are drawn from BindingDB's records for doi:10.1016/j.ejmech.2018.09.013 (Wuhan Institute of Technology, 2018).
